Test results published in patent publication US20060189650A1, “Novel piperidine derivatives as modulators of chemokine receptor ccr5” (priority 2002, published 2006).

What follows are compounds tested against recombinant human CCR5 receptor (Homo sapiens, UniProt P51681) (assay: MIP-1α radioligand binding assay (scintillation proximity, CHO cell membranes)). Conditions: negative log (base 10) of IC50, displacement of 0.1 nM iodinated MIP-1α; average if tested more than once.
Chain of recombinant human CCR5 receptor (P51681 whole entry): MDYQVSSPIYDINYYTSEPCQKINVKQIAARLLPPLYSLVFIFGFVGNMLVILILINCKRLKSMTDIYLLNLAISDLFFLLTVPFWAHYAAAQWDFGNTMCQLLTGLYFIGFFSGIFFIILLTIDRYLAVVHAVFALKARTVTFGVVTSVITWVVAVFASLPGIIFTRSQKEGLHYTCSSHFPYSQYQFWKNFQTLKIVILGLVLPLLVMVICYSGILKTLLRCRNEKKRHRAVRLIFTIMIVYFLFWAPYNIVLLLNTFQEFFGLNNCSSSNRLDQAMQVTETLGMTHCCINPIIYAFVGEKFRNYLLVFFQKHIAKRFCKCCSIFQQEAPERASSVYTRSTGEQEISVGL
Description: The ability of compounds to inhibit the binding of MIP-1α was assessed by an in vitro radioligand binding assay. Membranes were prepared from Chinese hamster ovary cells which expressed the recombinant human CCR5 receptor. These membranes were incubated with 0.1 nM iodinated MIP-1α, scintillation proximity beads and various concentrations of the compounds of the invention in 96-well plates. The amount of iodinated MIP-1α bound to the receptor was determined by scintillation counting. Competition curves were obtained for compounds and the concentration of compound which displaced 50% of bound iodinated MIP-1α was calculated (IC50).
In Table XV the results are presented as Pic50 values. A Pic50 value is the negative log (to base 10) of the IC50 result, so an IC50 of 1 μM (that is 1×10^−6M) gives a Pic50 of 6. If a compound was tested more than once then the data below is an average of the probative tests results.
For `CS(=O)(=O)c1ccc(S(=O)(=O)CCC2CCN(CC[C@H](NC(=O)c3ccc(Cl)cc3)c3ccccc3)CC2)cc1` [Table IV Compound 2], the IC50 was 1.58 nM.
For `CS(=O)(=O)c1ccc([C@@H](CCN2CCC(CCS(=O)(=O)c3ccc(S(C)(=O)=O)cc3)CC2)c2cc(F)cc(F)c2)cc1` [Table V Compound 7, 1-{(3R)-3-(3,5-difluorophenyl)-3-[4-(methylsulfonyl)phenyl]propyl}-4-(2-{[4-(methylsulfonyl)phenyl]sulfonyl}ethyl)piperidine], the IC50 was 0.631 nM.
In the case of `Cn1nnc(-c2ccc(S(=O)(=O)CCC3CCN(CC[C@H](c4ccc(S(C)(=O)=O)cc4)c4cc(F)cc(F)c4)CC3)cc2)n1` [Table V Compound 19, 1-{(3R)-3-(3,5-difluorophenyl)-3-[4-(methylsulfonyl)phenyl]propyl}-4-(2-{[4-(2-methyl-2H-tetrazol-5-yl)phenyl]sulfonyl}ethyl)piperidine], the IC50 is reported as 2 nM.
